Test results taken from patent US9242984B2, “Pyrazolyl derivatives as Syk inhibitors” (Merck Sharp & Dohme Corp., priority 2012, dated 2016).

These molecules were tested against T1, recombinant human Syk (GST-hSyk fusion protein) (Homo sapiens, UniProt P43405) (assay: Homogeneous Time-Resolved Fluorescence (HTRF) assay for the recombinant human Syk enzyme). Details: IC50 class; 10-dose titration, 25 μM ATP; read-out: rhSYK Activity.
T1 construct: purchased Carna Biosciences 08-176
Format: biochemical
Summary of the method: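 IC50 came from a four-parameter fit over ten doses, 10 μM to 0.508 nM, with HTRF read-out (Eu-anti-pTyr antibody, SA-APC, EDTA stop, 30 min). The enzyme, 5 pM GST-hSyk, met compound for 10 min, then phosphorylated 250 nM biotin-peptide with 25 μM ATP and 5 mM Mg for 45 min at room temperature, pH 7.5.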

IC50, ≤ 100 nM:
O=C(O)C1CCC(n2cc(-c3cc(Cl)cc(Nc4cc(C(F)(F)F)ccn4)n3)cn2)CC1 (stereo not shown) [Example 1.54, 4-[4-(4-chloro-6-{[4-(trifluoromethyl)pyridin-2-yl]amino}pyridin-2-yl)-1H-pyrazol-1-yl]cyclohexanecarboxylic acid]
O=C(O)C1CCC(n2cc(-c3cc(Cl)cc(Nc4cc(C(F)(F)F)ccn4)n3)cn2)CC1 (stereo not shown) [Example 1.55, 4-[4-(4-chloro-6-{[4-(trifluoromethyl)pyridin-2-yl]amino}pyridin-2-yl)-1H-pyrazol-1-yl]cyclohexanecarboxylic acid]
Cc1cc(Nc2nccc(C(F)(F)F)n2)cc(-c2cnn(C3CCC(C(=O)O)CC3)c2)c1 (stereo not shown) [Example 1.56, 4-[4-(3-methyl-5-{[4-(trifluoromethyl)pyrimidin-2-yl]amino}phenyl)-1H-pyrazol-1-yl]cyclohexanecarboxylic acid]
Cc1cc(Nc2nccc(C(F)(F)F)n2)cc(-c2cnn(C3CCC(C(=O)O)CC3)c2)c1 (stereo not shown) [Example 1.57, 4-[4-(3-methyl-5-{[4-(trifluoromethyl)pyrimidin-2-yl]amino}phenyl)-1H-pyrazol-1-yl]cyclohexanecarboxylic acid]
Cc1cc(Nc2nccc(C)n2)cc(-c2cnn(C3CCC(C(=O)O)CC3)c2)c1 (stereo not shown) [Example 1.58, 4-(4-{3-methyl-5-[(4-methylpyrimidin-2-yl)amino]phenyl}-1H-pyrazol-1-yl)cyclohexanecarboxylic acid]
Cc1cc(Nc2nccc(C)n2)cc(-c2cnn(C3CCC(C(=O)O)CC3)c2)c1 (stereo not shown) [Example 1.59, 4-(4-{3-methyl-5-[(4-methylpyrimidin-2-yl)amino]phenyl}-1H-pyrazol-1-yl)cyclohexanecarboxylic acid]
O=C(O)C1CCC(n2cc(-c3cc(Cl)cc(Nc4nccc(C(F)(F)F)n4)c3)cn2)CC1 (stereo not shown) [Example 1.60, 4-[4-(3-chloro-5-{[4-(trifluoromethyl)pyrimidin-2-yl]amino}phenyl)-1H-pyrazol-1-yl]cyclohexanecarboxylic acid]
O=C(O)C1CCC(n2cc(-c3cc(Cl)cc(Nc4nccc(C(F)(F)F)n4)c3)cn2)CC1 (stereo not shown) [Example 1.61, 4-[4-(3-chloro-5-{[4-(trifluoromethyl)pyrimidin-2-yl]amino}phenyl)-1H-pyrazol-1-yl]cyclohexanecarboxylic acid]
Cc1cc(Nc2cc(C(F)F)ccn2)nc(-c2cnn(C(C)C3CNC(=O)C3)c2)c1 (stereo not shown) [Example 1.62, 4-{1-[4-(6-{[4-(difluoromethyl)pyridin-2-yl]amino}-4-methylpyridin-2-yl)-1H-pyrazol-1-yl]ethyl}pyrrolidin-2-one]
Cc1cc(Nc2cc(C(F)F)ccn2)nc(-c2cnn(C(C)C3CNC(=O)C3)c2)c1 (stereo not shown) [Example 1.63, 4-{1-[4-(6-{[4-(difluoromethyl)pyridin-2-yl]amino}-4-methylpyridin-2-yl)-1H-pyrazol-1-yl]ethyl}pyrrolidin-2-one]
Cc1cc(Nc2cc(C(F)F)ccn2)nc(-c2cnn(C(C)C3CNC(=O)C3)c2)c1 (stereo not shown) [Example 1.64, 4-{1-[4-(6-{[4-(difluoromethyl)pyridin-2-yl]amino}-4-methylpyridin-2-yl)-1H-pyrazol-1-yl]ethyl}pyrrolidin-2-one]
Cc1cc(Nc2nccc(C(F)F)n2)cc(-c2cn[nH]c2)c1 [Example 1.65, 4-(difluoromethyl)-N-[3-methyl-5-(1H-pyrazol-4-yl)phenyl]pyrimidin-2-amine]
Cc1cc(Nc2cc(C(F)F)ccn2)nc(-c2cnn(C(C)C3CNC(=O)C3)c2)c1 (stereo not shown) [Example 1.66, 4-{1-[4-(6-{[4-(difluoromethyl)pyridin-2-yl]amino}-4-methylpyridin-2-yl)-1H-pyrazol-1-yl]ethyl}pyrrolidin-2-one]
